Test [1] has as its target PI3K-δ (PI3K(p1108/p857) (h)) (Homo sapiens, UniProt O00329). The experiment in a line: Evaluation of inhibitory activity against PI3K-δ (HTRF kinase assay). Format: biochemical. The conditions noted are these: for inhibition at 0.01 µM: compound concentration 0.01 μM, read-out: EXP_VALUE(% Inhibition) PI3K-δ 0.01 μM; for inhibition at 0.1 µM: compound concentration 0.1 μM, read-out: EXP_VALUE(% Inhibition) PI3K-δ 0.1 μM. A digest of the protocol: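 HTRF read-out (665/620 nm ratio ×10000) used Eu-labelled anti-GST, GST-tagged GRP1 PH domain and streptavidin-allophycocyanin after EDTA/PIP3 stop.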
A general note: In TR-FRET formats the signal depends on donor and acceptor labels being close together.

For another test, the target named is DNA-PK(h) (Homo sapiens, UniProt P78527). In words: Evaluation of inhibitory activity against DNA-PK (HTRF kinase assay, GST-cMyc-p53 substrate). The format is biochemical. The conditions noted are these: for inhibition at 0.01 µM: compound concentration 0.01 μM, read-out: EXP_VALUE(% Inhibition) DNA-PK(h) 0.01 μM; for inhibition at 0.1 µM: compound concentration 0.1 μM, read-out: EXP_VALUE(% Inhibition) DNA-PK(h) 0.1 μM. A digest of the protocol:
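Human DNA-PK with 50 μM GST-cMyc-p53 substrate; reaction started with Mg/ATP, run 30 min at room temperature, stopped with EDTA. Phospho-Ser15 p53 detected by HTRF (Eu anti-phospho-Ser15, d2 anti-GST), signal = 10000×(Em 665/Em 620).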

The structures appear in SMILES notation.

Sequence of PI3K-δ (PI3K(p1108/p857) (h)) (O00329 whole entry, the tested form may be a part): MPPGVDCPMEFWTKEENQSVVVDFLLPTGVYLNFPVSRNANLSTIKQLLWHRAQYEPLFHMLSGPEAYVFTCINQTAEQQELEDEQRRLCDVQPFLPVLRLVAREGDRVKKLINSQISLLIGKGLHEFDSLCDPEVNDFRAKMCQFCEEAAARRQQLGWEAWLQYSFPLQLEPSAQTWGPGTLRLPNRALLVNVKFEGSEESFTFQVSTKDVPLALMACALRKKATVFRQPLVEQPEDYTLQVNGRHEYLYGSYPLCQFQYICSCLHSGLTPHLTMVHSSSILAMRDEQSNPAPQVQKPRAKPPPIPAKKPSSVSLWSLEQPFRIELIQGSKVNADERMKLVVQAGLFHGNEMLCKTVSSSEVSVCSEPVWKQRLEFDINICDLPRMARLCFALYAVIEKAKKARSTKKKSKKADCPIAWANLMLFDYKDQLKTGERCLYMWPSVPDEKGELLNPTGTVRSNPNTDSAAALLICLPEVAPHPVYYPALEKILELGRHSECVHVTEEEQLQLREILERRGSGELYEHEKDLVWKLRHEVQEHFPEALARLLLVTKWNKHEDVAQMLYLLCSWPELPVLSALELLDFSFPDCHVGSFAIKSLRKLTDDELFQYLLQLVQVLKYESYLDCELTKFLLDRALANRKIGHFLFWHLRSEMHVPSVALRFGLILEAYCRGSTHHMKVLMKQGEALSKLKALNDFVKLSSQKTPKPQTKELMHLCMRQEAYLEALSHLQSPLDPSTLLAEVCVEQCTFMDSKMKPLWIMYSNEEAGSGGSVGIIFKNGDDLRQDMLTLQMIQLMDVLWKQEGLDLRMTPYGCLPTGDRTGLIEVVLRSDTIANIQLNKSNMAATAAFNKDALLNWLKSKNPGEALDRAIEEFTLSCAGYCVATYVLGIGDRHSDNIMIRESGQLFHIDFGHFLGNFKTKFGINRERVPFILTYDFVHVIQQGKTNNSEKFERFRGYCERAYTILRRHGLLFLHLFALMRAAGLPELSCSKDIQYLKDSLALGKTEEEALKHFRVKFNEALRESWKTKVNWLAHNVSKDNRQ
Sequence of PI3K-δ (PI3K(p1108/p857) (h)) (P27986 whole entry partner, the tested form may be a part): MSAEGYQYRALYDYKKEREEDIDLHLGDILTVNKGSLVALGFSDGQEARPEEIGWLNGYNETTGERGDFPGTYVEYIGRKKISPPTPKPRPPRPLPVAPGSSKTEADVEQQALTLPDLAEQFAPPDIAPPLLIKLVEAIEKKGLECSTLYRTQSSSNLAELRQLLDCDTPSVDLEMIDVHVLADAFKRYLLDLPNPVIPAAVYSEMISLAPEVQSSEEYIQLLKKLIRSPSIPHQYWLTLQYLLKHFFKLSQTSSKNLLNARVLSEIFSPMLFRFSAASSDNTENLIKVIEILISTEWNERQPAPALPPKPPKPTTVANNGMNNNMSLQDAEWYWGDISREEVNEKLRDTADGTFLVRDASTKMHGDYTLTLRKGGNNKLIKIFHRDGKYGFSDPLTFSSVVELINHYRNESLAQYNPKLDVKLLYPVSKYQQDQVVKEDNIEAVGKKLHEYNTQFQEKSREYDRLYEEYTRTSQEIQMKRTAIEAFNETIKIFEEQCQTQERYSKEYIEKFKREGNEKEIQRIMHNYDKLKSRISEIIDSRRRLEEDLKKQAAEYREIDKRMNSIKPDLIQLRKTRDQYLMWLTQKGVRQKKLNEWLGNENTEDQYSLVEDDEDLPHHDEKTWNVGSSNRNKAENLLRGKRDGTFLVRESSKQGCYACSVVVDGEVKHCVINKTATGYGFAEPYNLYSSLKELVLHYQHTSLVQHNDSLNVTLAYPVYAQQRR

The term inhibition denotes the change of the read-out against control, counted positive when it falls. On to `C[C@H](Nc1ncnc2[nH]ccc(=O)c12)c1c(Cl)c2cccc(C(=O)NCc3cccs3)c2c(=O)n1-c1ccccc1` [Example 278, (S)-4-chloro-1-oxo-3-(1-((5-oxo-5,8-dihydropyrido[2,3-d]pyrimidin-4-yl)amino)ethyl)-2-phenyl-N-(thiophen-2-ylmethyl)-1,2-dihydroisoquinoline-8-carboxamide], for which the inhibition at 0.01 µM in test [1] was 104%; at DNA-PK(h) it was 6%.
The matching figures for `C[C@H](Nc1ncnc2[nH]ccc(=O)c12)c1c(Cl)c2cccc(C(=O)NCc3ccco3)c2c(=O)n1-c1ccccc1` [Example 279, (S)-4-chloro-N-(furan-2-ylmethyl)-1-oxo-3-(1-((5-oxo-5,8-dihydropyrido[2,3-d]pyrimidin-4-yl)amino)ethyl)-2-phenyl-1,2-dihydroisoquinoline-8-carboxamide]: 105% and 11%.
The like results for `C[C@H](Nc1ncnc2[nH]ccc(=O)c12)c1c(Cl)c2cccc(C(=O)NCc3ccccc3)c2c(=O)n1-c1ccccc1` [Example 280, (S)—N-benzyl-4-chloro-1-oxo-3-(1-((5-oxo-5,8-dihydropyrido[2,3-d]pyrimidin-4-yl)amino)ethyl)-2-phenyl-1,2-dihydroisoquinoline-8-carboxamide] were, in that order, 91% and 15%.
The like results for `C[C@H](Nc1ncnc2[nH]ccc(=O)c12)c1c(Cl)c2cccc(C(=O)NCCN3CCOCC3)c2c(=O)n1-c1ccccc1` [Example 281, (S)-4-chloro-N-(2-morpholinoethyl)-1-oxo-3-(1-((5-oxo-5,8-dihydropyrido[2,3-d]pyrimidin-4-yl)amino)ethyl)-2-phenyl-1,2-dihydroisoquinoline-8-carboxamide] were, in that order, 75% and 13%.
Turning to `CC(C)NC(=O)c1cccc2c(Cl)c([C@H](C)Nc3ncnc4[nH]ccc(=O)c34)n(-c3ccccc3)c(=O)c12` [Example 282, (S)-4-chloro-N-isopropyl-1-oxo-3-(1-((5-oxo-5,8-dihydropyrido[2,3-d]pyrimidin-4-yl)amino)ethyl)-2-phenyl-1,2-dihydroisoquinoline-8-carboxamide], the inhibition at 0.01 µM in test [1] worked out at 79%; on DNA-PK(h) it was 14%.
The like results for `C[C@H](Nc1ncnc2[nH]ccc(=O)c12)c1c(Cl)c2cccc(C(=O)NCC3CC3)c2c(=O)n1-c1ccccc1` [Example 283, (S)-4-chloro-N-(cyclopropylmethyl)-1-oxo-3-(1-((5-oxo-5,8-dihydropyrido[2,3-d]pyrimidin-4-yl)amino)ethyl)-2-phenyl-1,2-dihydroisoquinoline-8-carboxamide] were, in that order, 81% and 12%.
As to `C[C@H](Nc1ncnc2[nH]ccc(=O)c12)c1c(Cl)c2cccc(C(=O)NC(C)(C)CO)c2c(=O)n1-c1ccccc1` [Example 284, (S)-4-chloro-N-(1-hydroxy-2-methylpropan-2-yl)-1-oxo-3-(1-((5-oxo-5,8-dihydropyrido[2,3-d]pyrimidin-4-yl)amino)ethyl)-2-phenyl-1,2-dihydroisoquinoline-8-carboxamide], the figures for the inhibition at 0.01 µM (in test [1]; at DNA-PK(h)) were 25% and 10%, respectively.
The like results for `C[C@H](Nc1ncnc2[nH]ccc(=O)c12)c1c(Cl)c2cccc(C(=O)NC(C)(C)C)c2c(=O)n1-c1ccccc1` [Example 285, (S)—N-(tert-butyl)-4-chloro-1-oxo-3-(1-((5-oxo-5,8-dihydropyrido[2,3-d]pyrimidin-4-yl)amino)ethyl)-2-phenyl-1,2-dihydroisoquinoline-8-carboxamide] were, in that order, 22% and 15%.
As for `C[C@H](Nc1ncnc2[nH]ccc(=O)c12)c1c(Cl)c2cccc(C(=O)N3CCOCC3)c2c(=O)n1-c1ccccc1` [Example 286, (S)-4-((1-(4-chloro-8-(morpholine-4-carbonyl)-1-oxo-2-phenyl-1,2-dihydroisoquinolin-3-yl)ethyl)amino)pyrido[2,3-d]pyrimidin-5(8H)-one], the inhibition at 0.01 µM in test [1] worked out at 52%; at DNA-PK(h), 23%.
As to `C[C@H](Nc1ncnc2[nH]ccc(=O)c12)c1c(Cl)c2cccc(-c3ncc[nH]3)c2c(=O)n1-c1ccccc1` [Example 287, (S)-4-((1-(4-chloro-8-(1H-imidazol-2-yl)-1-oxo-2-phenyl-1,2-dihydroisoquinolin-3-yl)ethyl)amino)pyrido[2,3-d]pyrimidin-5(8H)-one], the inhibition at 0.01 µM was 38% in test [1] and 28% at DNA-PK(h).
On to `Cc1nc(-c2cccc3c(Cl)c([C@H](C)Nc4ncnc5[nH]ccc(=O)c45)n(-c4ccccc4)c(=O)c23)[nH]c1C` [Example 288, (S)-4-((1-(4-chloro-8-(4,5-dimethyl-1H-imidazol-2-yl)-1-oxo-2-phenyl-1,2-dihydroisoquinolin-3-yl)ethyl)amino)pyrido[2,3-d]pyrimidin-5(8H)-one], for which the inhibition at 0.01 µM in test [1] was found to be 28%; on DNA-PK(h) it was 8%.
Consider `C[C@H](Nc1ncnc2[nH]ccc(=O)c12)c1c(Cl)c2cccc(C3=NC(C)(C)CO3)c2c(=O)n1-c1ccccc1` [Example 289, (S)-4-((1-(4-chloro-8-(4,4-dimethyl-4,5-dihydrooxazol-2-yl)-1-oxo-2-phenyl-1,2-dihydroisoquinolin-3-yl)ethyl)amino)pyrido[2,3-d]pyrimidin-5(8H)-one], for which the inhibition at 0.01 µM in test [1] amounted to 10%; on DNA-PK(h), 27%.
For the compound `C[C@H](Nc1ncnc2[nH]ccc(=O)c12)c1c(Cl)c2cccc(C(=O)O)c2c(=O)n1-c1ccccc1` [Example 290, (S)-4-chloro-1-oxo-3-(1-((5-oxo-5,8-dihydropyrido[2,3-d]pyrimidin-4-yl)amino)ethyl)-2-phenyl-1,2-dihydroisoquinoline-8-carboxylic acid], in test [1], the inhibition at 0.01 µM was 80% and the inhibition at 0.1 µM is 102%. Moreover, on DNA-PK(h), the inhibition at 0.01 µM is 39% and the inhibition at 0.1 µM amounted to 76%.
Take `C[C@H](Nc1ncnc2[nH]ccc(=O)c12)c1c(Cl)c2cccc(C(N)=O)c2c(=O)n1-c1ccccc1` [Example 291, (S)-4-chloro-1-oxo-3-(1-((5-oxo-5,8-dihydropyrido[2,3-d]pyrimidin-4-yl)amino)ethyl)-2-phenyl-1,2-dihydroisoquinoline-8-carboxamide]: the inhibition at 0.01 µM in test [1] turned out to be 91%; on DNA-PK(h), 31%. Further, the results for the inhibition at 0.1 µM (in test [1]; on DNA-PK(h)) were 101% and 78%, respectively.
For `CCOC(=O)c1cccc2c(Cl)c([C@H](C)Nc3ncnc4[nH]ccc(=O)c34)n(-c3ccccc3)c(=O)c12` [Example 292, ethyl(S)-4-chloro-1-oxo-3-(1-((5-oxo-5,8-dihydropyrido[2,3-d]pyrimidin-4-yl)amino)ethyl)-2-phenyl-1,2-dihydroisoquinoline-8-carboxylate], in test [1], the inhibition at 0.01 µM was determined as 99% and the inhibition at 0.1 µM turned out to be 112%. Moreover, on DNA-PK(h), the inhibition at 0.01 µM was 79% and the inhibition at 0.1 µM turned out to be 99%.
Turning to `C[C@H](Nc1ncnc2[nH]ccc(=O)c12)c1c(Cl)c2cccc(-c3nc(N)nc(N)n3)c2c(=O)n1-c1ccccc1` [Example 293, (S)-4-((1-(4-chloro-8-(4,6-diamino-1,3,5-triazin-2-yl)-1-oxo-2-phenyl-1,2-dihydroisoquinolin-3-yl)ethyl)amino)pyrido[2,3-d]pyrimidin-5(8H)-one], the figures for the inhibition at 0.01 µM (in test [1]; on DNA-PK(h)) were 24% and 1%, respectively.
`C[C@H](Nc1ncnc2[nH]ccc(=O)c12)c1c(Cl)c2cccc(N)c2c(=O)n1-c1ccccc1` [Example 294, (S)-4-((1-(8-amino-4-chloro-1-oxo-2-phenyl-1,2-dihydroisoquinolin-3-yl)ethyl)amino)pyrido[2,3-d]pyrimidin-5(8H)-one]: the inhibition at 0.01 µM was determined as 65% in test [1] and 49% at DNA-PK(h).
Regarding `C[C@H](Nc1ncnc2[nH]ccc(=O)c12)c1c(Cl)c2cccc(NC(=O)C(C)(C)C)c2c(=O)n1-c1ccccc1` [Example 295, (S)—N-(4-chloro-1-oxo-3-(1-((5-oxo-5,8-dihydropyrido[2,3-d]pyrimidin-4-yl)amino)ethyl)-2-phenyl-1,2-dihydroisoquinolin-8-yl) pivalamide], the values for the inhibition at 0.01 µM (in test [1]; on DNA-PK(h)) were 24% and 56%, respectively.
Consider `CC(=O)Nc1cccc2c(Cl)c([C@H](C)Nc3ncnc4[nH]ccc(=O)c34)n(-c3ccccc3)c(=O)c12` [Example 296, (S)—N-(4-chloro-1-oxo-3-(1-((5-oxo-5,8-dihydropyrido[2,3-d]pyrimidin-4-yl)amino)ethyl)-2-phenyl-1,2-dihydroisoquinolin-8-yl) acetamide], for which the inhibition at 0.01 µM in test [1] amounted to 46%; at DNA-PK(h) it was 30%.
Turning to `CCCCC(=O)Nc1cccc2c(Cl)c([C@H](C)Nc3ncnc4[nH]ccc(=O)c34)n(-c3ccccc3)c(=O)c12` [Example 297, (S)—N-(4-chloro-1-oxo-3-(1-((5-oxo-5,8-dihydropyrido[2,3-d]pyrimidin-4-yl)amino)ethyl)-2-phenyl-1,2-dihydroisoquinolin-8-yl)pentanamide], the results for the inhibition at 0.01 µM (in test [1]; on DNA-PK(h)) were 9% and 45%, respectively.
Turning to `C[C@H](Nc1ncnc2[nH]ccc(=O)c12)c1c(Cl)c2cccc(NC(=O)C3CCC3)c2c(=O)n1-c1ccccc1` [Example 298, (S)—N-(4-chloro-1-oxo-3-(1-((5-oxo-5,8-dihydropyrido[2,3-d]pyrimidin-4-yl)amino)ethyl)-2-phenyl-1,2-dihydroisoquinolin-8-yl)cyclobutanecarboxamide], the inhibition at 0.01 µM in test [1] is 11%; on DNA-PK(h), 50%.

The record behind these values is patent US20230072683A1, “PYRIDO-PYRIMIDIN DERIVATIVES AND PHARMACEUTICAL COMPOSITION, FOR USE IN PREVENTING OR TREATING PI3 KINASE RELATED DISEASES, COMPRISING SAME AS ACTIVE INGREDIENT” (BORYUNG PHARMACEUTICAL CO., LTD, priority 2019, published 2023).
